Earlier results on 1 molecule are cited in patent US11007152B2, “Pharmaceutical composition comprising amorphous lenalidomide and an antioxidant” (Synthon B.V., priority 2015, dated 2021).

Consider `Nc1cccc2c1CN(C1CCC(=O)NC1=O)C2=O` (racemic) [Lenalidomide, (RS)-3-(4-Amino-1-oxo 1,3-dihydro-2H-isoindol-2-yl)piperidine-2,6-dione], for which the solubility in water result is recorded as “slightly soluble”.
